Measurements: ChEMBL document CHEMBL1201862, “PubChem BioAssay data set” (2004)
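Compound exposure: 48 hours, 5 concentrations, 96-well plates. At the GI50, growth is halved.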 The source made the active and inactive calls. Rule as the data show it: active = GI50 up to about 1.1 µM and inactive = higher.

Legend:
Assay in all cases: inhibition of tumour cell growth, NCI panel, 48 h
[1] = tested on: 786-0
[2] = tested on: A498
[3] = tested on: A549
[4] = tested on: ACHN
[5] = tested on: BT-549
[6] = tested on: CAKI-1
[7] = tested on: CCRF-CEM
[8] = tested on: COLO 205
[9] = tested on: DU-145
[10] = tested on: EKVX
[11] = tested on: HCC 2998
[12] = tested on: HCT-116
[13] = tested on: HCT-15
[14] = tested on: HL-60
[15] = tested on: HOP-62
[16] = tested on: HT-29
[17] = tested on: Hs-578T
[18] = tested on: IGROV-1
[19] = tested on: K562
[20] = tested on: KM12
[21] = tested on: LOX IMVI
[22] = tested on: M14
[23] = tested on: MCF7
[24] = tested on: MDA-MB-231
[25] = tested on: MDA-MB-435
[26] = tested on: MDA-N
[27] = tested on: MOLT-4
[28] = tested on: Malme-3M
[29] = tested on: NCI-H226
[30] = tested on: NCI-H23
[31] = tested on: NCI-H460
[32] = tested on: NCI-H522
[33] = tested on: OVCAR-8
[34] = tested on: PC-3
[35] = tested on: RPMI-8226
[36] = tested on: SF-268
[37] = tested on: SF-295
[38] = tested on: SF-539
[39] = tested on: SK-MEL-28
[40] = tested on: SK-MEL-5
[41] = tested on: SK-OV-3
[42] = tested on: SN12C
[43] = tested on: SNB-19
[44] = tested on: SNB-75
[45] = tested on: SR
[46] = tested on: SW-620
[47] = tested on: T47D
[48] = tested on: TK-10
[49] = tested on: UACC-257
[50] = tested on: UACC-62
[51] = tested on: UO-31
[52] = tested on: NCI/ADR-RES
[53] = tested on: OVCAR-3
[54] = tested on: OVCAR-4
[55] = tested on: OVCAR-5
[56] = tested on: RXF 393
[57] = tested on: SK-MEL-2
[58] = tested on: U-251
[59] = tested on: HOP-92

For `COc1cccc(C2SC(=N)Nc3c2c(C)nn3C(=O)Cc2ccccc2)c1` (stereo unspecified), the GI50 [1] was > 100 µM (inactive), the GI50 [2] was > 100 µM (inactive) and the GI50 [3] was > 100 µM (inactive). The GI50 [4] was > 100 µM (inactive), the GI50 [5] was > 100 µM (inactive) and the GI50 [6] was > 100 µM (inactive). The GI50 [7] was > 100 µM (inactive), the GI50 [8] was > 100 µM (inactive) and the GI50 [9] was > 100 µM (inactive). For the same compound, the GI50 [10] was > 100 µM (inactive), the GI50 [11] was > 100 µM (inactive) and the GI50 [12] was > 100 µM (inactive). The GI50 [13] was greater than 100 µM, the GI50 [14] was > 100 µM (inactive) and the GI50 [15] was > 100 µM (inactive). For the same compound, the GI50 [16] was > 100 µM (inactive), the GI50 [17] was > 100 µM (inactive) and the GI50 [18] was > 100 µM (inactive). For the same compound, the GI50 [19] was > 100 µM (inactive), the GI50 [20] was > 100 µM (inactive) and the GI50 [21] was > 100 µM (inactive). For the same compound, the GI50 [22] was > 100 µM (inactive), the GI50 [23] was 39.8 µM (inactive) and the GI50 [24] was > 100 µM (inactive). For the same compound, the GI50 [25] was > 100 µM (inactive), the GI50 [26] was > 100 µM (inactive) and the GI50 [27] was > 100 µM (inactive). The GI50 [28] was > 100 µM (inactive), the GI50 [29] was > 100 µM (inactive) and the GI50 [30] was > 100 µM (inactive). For the same compound, the GI50 [31] was > 100 µM (inactive), the GI50 [32] was > 100 µM (inactive) and the GI50 [33] was > 100 µM (inactive). For the same compound, the GI50 [34] was > 100 µM (inactive), the GI50 [35] was > 100 µM (inactive) and the GI50 [36] was > 100 µM (inactive). For the same compound, the GI50 [37] was > 100 µM (inactive), the GI50 [38] was > 100 µM (inactive) and the GI50 [39] was > 100 µM (inactive). For the same compound, the GI50 [40] was > 100 µM (inactive), the GI50 [41] was > 100 µM (inactive) and the GI50 [42] was > 100 µM (inactive). The GI50 [43] was > 100 µM (inactive), the GI50 [44] was 51.5 µM (inactive) and the GI50 [45] was > 100 µM (inactive). For the same compound, the GI50 [46] was > 100 µM (inactive), the GI50 [47] was > 100 µM (inactive) and the GI50 [48] was > 100 µM (inactive). For the same compound, the GI50 [49] was > 100 µM (inactive), the GI50 [50] was > 100 µM (inactive) and the GI50 [51] was > 100 µM (inactive).

With `Cc1cc(S(=O)(=O)Nc2nc(N)n[nH]2)c(Cl)cc1Cl` the GI50 [1] was > 10 µM (inactive), the GI50 [2] was > 10 µM (inactive) and the GI50 [3] was > 10 µM (inactive). For the same compound, the GI50 [4] was > 10 µM (inactive), the GI50 [5] was > 10 µM (inactive) and the GI50 [6] was > 10 µM (inactive). The GI50 [7] was > 10 µM (inactive), the GI50 [8] was > 10 µM (inactive) and the GI50 [9] was > 10 µM (inactive). For the same compound, the GI50 [10] was > 10 µM (inactive), the GI50 [11] was > 10 µM (inactive) and the GI50 [12] was > 10 µM (inactive). The GI50 [13] was greater than 10 µM, the GI50 [14] was > 10 µM (inactive) and the GI50 [15] was > 10 µM (inactive). For the same compound, the GI50 [16] was > 10 µM (inactive), the GI50 [17] was > 10 µM (inactive) and the GI50 [18] was > 10 µM (inactive). The GI50 [19] was > 10 µM (inactive), the GI50 [20] was > 10 µM (inactive) and the GI50 [21] was > 10 µM (inactive). The GI50 [22] was > 10 µM (inactive), the GI50 [24] was > 10 µM (inactive) and the GI50 [25] was > 10 µM (inactive). The GI50 [26] was > 10 µM (inactive), the GI50 [27] was > 10 µM (inactive) and the GI50 [28] was > 10 µM (inactive). For the same compound, the GI50 [29] was > 10 µM (inactive), the GI50 [30] was > 10 µM (inactive) and the GI50 [31] was > 10 µM (inactive). The GI50 [32] was > 10 µM (inactive), the GI50 [52] was > 10 µM (inactive) and the GI50 [53] was > 10 µM (inactive). For the same compound, the GI50 [54] was > 10 µM (inactive), the GI50 [55] was > 10 µM (inactive) and the GI50 [33] was > 10 µM (inactive). The GI50 [34] was > 10 µM (inactive), the GI50 [35] was > 10 µM (inactive) and the GI50 [56] was > 10 µM (inactive). For the same compound, the GI50 [36] was > 10 µM (inactive), the GI50 [37] was > 10 µM (inactive) and the GI50 [38] was > 10 µM (inactive). The GI50 [39] was > 10 µM (inactive), the GI50 [57] was > 10 µM (inactive) and the GI50 [40] was > 10 µM (inactive). For the same compound, the GI50 [41] was > 10 µM (inactive), the GI50 [42] was > 10 µM (inactive) and the GI50 [43] was > 10 µM (inactive). The GI50 [44] was > 10 µM (inactive), the GI50 [46] was > 10 µM (inactive) and the GI50 [47] was > 10 µM (inactive). The GI50 [48] was > 10 µM (inactive), the GI50 [58] was > 10 µM (inactive) and the GI50 [49] was > 10 µM (inactive). The GI50 [50] was > 10 µM (inactive).

For `Cc1ccc(C2(c3ccc(F)cc3)OC(=O)c3ccccc32)c(O)c1` (stereo unspecified), the GI50 [1] was 15.4 µM (inactive), the GI50 [2] was 19.6 µM (inactive) and the GI50 [3] was 15.8 µM (inactive). The GI50 [4] was 14.8 µM (inactive), the GI50 [5] was 19.7 µM (inactive) and the GI50 [6] was 11.6 µM (inactive). The GI50 [7] was 18.7 µM (inactive), the GI50 [8] was 21.1 µM (inactive) and the GI50 [9] was 15.4 µM (inactive). For the same compound, the GI50 [10] was 16 µM (inactive), the GI50 [11] was 22.4 µM (inactive) and the GI50 [12] was 12.9 µM (inactive). For the same compound, the GI50 [13] was 15.2 µM, the GI50 [14] was 14 µM (inactive) and the GI50 [15] was 14.6 µM (inactive). The GI50 [59] was 16.6 µM (inactive), the GI50 [16] was 17.7 µM (inactive) and the GI50 [17] was 20.1 µM (inactive). The GI50 [18] was 14.4 µM (inactive), the GI50 [19] was 14.2 µM (inactive) and the GI50 [20] was 15.5 µM (inactive). For the same compound, the GI50 [21] was 13.9 µM (inactive), the GI50 [22] was 15 µM (inactive) and the GI50 [23] was 17 µM (inactive). For the same compound, the GI50 [24] was 17.9 µM (inactive), the GI50 [25] was 12.4 µM (inactive) and the GI50 [26] was 12 µM (inactive). The GI50 [27] was 10.8 µM (inactive), the GI50 [28] was > 10 µM (inactive) and the GI50 [29] was 15 µM (inactive). For the same compound, the GI50 [30] was 19.9 µM (inactive), the GI50 [31] was 17 µM (inactive) and the GI50 [32] was 14.5 µM (inactive). The GI50 [52] was 16.1 µM (inactive), the GI50 [53] was 3.56 µM (inactive) and the GI50 [54] was 17 µM (inactive). For the same compound, the GI50 [55] was 14.4 µM (inactive), the GI50 [33] was 18.2 µM (inactive) and the GI50 [35] was 16.4 µM (inactive). For the same compound, the GI50 [36] was 19.5 µM (inactive), the GI50 [37] was 11.5 µM (inactive) and the GI50 [38] was 18.9 µM (inactive). For the same compound, the GI50 [57] was 14.7 µM (inactive), the GI50 [40] was 16.3 µM (inactive) and the GI50 [41] was 11.9 µM (inactive). For the same compound, the GI50 [42] was 14.7 µM (inactive), the GI50 [43] was 16.6 µM (inactive) and the GI50 [44] was 12.3 µM (inactive). For the same compound, the GI50 [46] was 13.6 µM (inactive), the GI50 [47] was 13.5 µM (inactive) and the GI50 [48] was 15.1 µM (inactive). For the same compound, the GI50 [58] was 18.5 µM (inactive), the GI50 [49] was 15.6 µM (inactive) and the GI50 [50] was 10.5 µM (inactive). For the same compound, the GI50 [51] was 5.5 µM (inactive).
